Measurements published in publication PMC10762035, “Molecular basis of human trace amine-associated receptor 1 activation” (Nature Communications, 2024).
Where a chain is given by its changes, count along the chain named. Values joined by “and” are separate entries in the source; they are usually repeats but may differ in a detail not shown here. Equal entries are not always repeated. Where two headings read alike, the source gives them in different places.

Key:
Assay type in all cases: cell-based
[1] = biological target: T1, β2AR-Nterm-hTA1-F112^3.41W (CryoEM Construct) (Homo sapiens, UniProt Q96RJ0, F112W); assay: GloSensor cAMP accumulation assay, cryoEM construct;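 also: cells transiently co-transfected with the receptor construct and GloSensor cAMP biosensor, luminescence read after 30 min compound exposure at room temperature in the dark as cAMP accumulation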;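 as to Normalized Luminescence Counts (N=2): normalized to the maximum response of β-PEA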
T1 construct: FLAG (N); 10xHis (N); TEV protease site (N); expressed in transfected cells; host or cells: HEK293T

hTA1 C96S = biological target: T2, hTA1 C96S (Homo sapiens, UniProt Q96RJ0, C96S); assay: GloSensor cAMP accumulation assay, C96S mutant; settings: log[Compound]
T2 construct: expressed in transfected cells; host or cells: HEK293T
T2 sequence (Q96RJ0 1-339 C96S): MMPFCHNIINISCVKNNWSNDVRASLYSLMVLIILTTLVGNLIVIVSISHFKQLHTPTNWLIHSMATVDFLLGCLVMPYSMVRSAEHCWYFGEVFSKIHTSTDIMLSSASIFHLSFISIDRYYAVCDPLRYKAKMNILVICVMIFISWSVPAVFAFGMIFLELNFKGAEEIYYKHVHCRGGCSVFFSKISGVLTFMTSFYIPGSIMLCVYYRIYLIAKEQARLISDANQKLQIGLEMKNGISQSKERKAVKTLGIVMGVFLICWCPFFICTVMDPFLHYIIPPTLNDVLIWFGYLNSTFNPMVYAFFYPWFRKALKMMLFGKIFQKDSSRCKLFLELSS

hTA1 W264F = biological target: T3, hTA1 W264F (Homo sapiens, UniProt Q96RJ0, W264F); assay: GloSensor cAMP accumulation assay, W264F mutant;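 also: cells transiently transfected with receptor plus GloSensor, luminescence read 30 min after agonist addition at room temperature, concentration-response curves fitted by log(agonist) vs response regression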
T3 construct: expressed in transfected cells; host or cells: HEK293T
T3 sequence (Q96RJ0 1-339 W264F): T2 sequence (Q96RJ0 1-339 C96S) with S96C, W264F

hTA1 I290Y = biological target: T4, hTA1 I290Y (Homo sapiens, UniProt Q96RJ0, I290Y); assay: GloSensor cAMP accumulation assay, I290Y mutant; settings: for cAMP accumulation response, normalized (concentration-response source data, single replicate values): hTA1 I290Y (N=3), log[Compound];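 as to cAMP accumulation response, normalized (concentration-response source data, single replicate values): normalized to the maximum response of β-PEA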
T4 construct: expressed in transfected cells; host or cells: HEK293T
T4 sequence (Q96RJ0 1-339 I290Y): T2 sequence (Q96RJ0 1-339 C96S) with S96C, I290Y

hTA1 F195T = biological target: T5, hTA1 F195T (Homo sapiens, UniProt Q96RJ0, F195T); assay: GloSensor cAMP accumulation assay, F195T mutant;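 also: cells transiently co-expressing HA-FLAG-tagged hTA1 and the GloSensor cAMP biosensor, luminescence read 30 min after agonist addition at room temperature, concentration-response fitted by nonlinear regression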
T5 construct: expressed in transfected cells; host or cells: HEK293T
T5 sequence (Q96RJ0 1-339 F195T): T2 sequence (Q96RJ0 1-339 C96S) with S96C, F195T

hTA1 T271N = biological target: T6, hTA1 T271N (Homo sapiens, UniProt Q96RJ0, T271N); assay: GloSensor cAMP accumulation assay, T271N mutant; settings: for Emax: T271N
T6 construct: expressed in transfected cells; host or cells: HEK293T
T6 sequence (Q96RJ0 1-339 T271N): T2 sequence (Q96RJ0 1-339 C96S) with S96C, T271N

[2] = Cryo EM Construct minus WT average

T1 sequence (Q96RJ0 with tags, fused parts or gaps F112W): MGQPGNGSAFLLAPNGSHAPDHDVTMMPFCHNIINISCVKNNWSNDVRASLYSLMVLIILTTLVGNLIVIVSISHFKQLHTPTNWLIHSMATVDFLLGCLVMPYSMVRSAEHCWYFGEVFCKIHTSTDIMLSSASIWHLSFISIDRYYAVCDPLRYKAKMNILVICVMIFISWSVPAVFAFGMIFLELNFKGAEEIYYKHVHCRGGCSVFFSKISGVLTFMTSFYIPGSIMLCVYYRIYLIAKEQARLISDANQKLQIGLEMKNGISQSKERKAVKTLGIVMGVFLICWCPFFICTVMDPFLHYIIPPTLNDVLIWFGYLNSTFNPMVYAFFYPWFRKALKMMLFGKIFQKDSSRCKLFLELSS

## CCc1[nH]nc(C(=O)Nc2ccc([C@H]3CNCCO3)cc2)c1C [ralmitaront]
[1]; [2]
  ΔEmax values (each mutant value - WT average), Mean: 72.2357 and 63.0743
  ΔpEC50 values (each mutant value - WT average), Mean: -1.146 and -1.03
[1]; Cryo EM Construct, mean of each independent experiment (3 replicates)
  Emax values, Mean: -1.146 and -1.03
[1]; CryoEM Construct, log[Compound], M = -5, single replicates
  Normalized Luminescence Counts (N=2): 105.279 and 102.248 and 77.3142 and 99.3117
[1]; CryoEM Construct, n=2, read-out: Span ± SEM (Emax normalized to β-PEA)
  Emax: 107 ± 3.32%
hTA1 C96S; C96S, M = -5, single replicates (N=2)
  Normalized Luminescence Counts: 1.4045 and -2.55 and -5.186 and -2.698 and 26.3511 and -6.571
hTA1 C96S; C96S, M = -5.522, single replicates (N=2)
  Normalized Luminescence Counts: -3.209 and -4.527 and -5.845 and -4.6346 and 8.922 and -0.7614
hTA1 C96S; C96S, M = -6, single replicates (N=2)
  Normalized Luminescence Counts: -3.209 and -2.55 and -5.186 and 8.922 and 1.175 and 18.6047
hTA1 C96S; C96S, M = -6.522, single replicates (N=2)
  Normalized Luminescence Counts: -5.186 (2×) and -3.209 and -6.571 and -12.381 and 39.9073
hTA1 C96S; C96S, M = -7, single replicates (N=2)
  Normalized Luminescence Counts: -5.845 and -1.232 and -3.868 and 3.112 and -12.381 and 8.922
hTA1 C96S; C96S, M = -7.522, single replicates (N=2)
  Normalized Luminescence Counts: -5.845 and -2.55 and -6.504 and 10.8582 (2×) and -6.571
hTA1 C96S; C96S, M = -8, single replicates (N=2)
  Normalized Luminescence Counts: -1.232 and -0.5726 and -2.55 and 20.5413 and -0.7614 and 37.9707
hTA1 C96S; C96S, M = -8.522, single replicates (N=2)
  Normalized Luminescence Counts: -1.891 (2×) and -3.209 and -0.7614 (2×) and 14.7315
hTA1 C96S; C96S, M = -9, single replicates (N=2)
  Normalized Luminescence Counts: -3.209 and -0.5726 and -2.55 and 6.985 and 8.922 and 5.048
hTA1 C96S; C96S, M = -9.522, single replicates (N=2)
  Normalized Luminescence Counts: -3.209 and -3.868 and -1.232 and 24.4145 and 3.112 and -8.508
hTA1 C96S; C96S, M = -10, single replicates (N=2)
  Normalized Luminescence Counts: -3.868 and -0.5726 and -1.232 and -0.7614 and -16.2542 (2×)
hTA1 C96S; C96S, M = -10.522, single replicates (N=2)
  Normalized Luminescence Counts: -2.55 (2×) and -1.232 and -6.571 and -22.0641 and -10.4444
hTA1 C96S; C96S, M = -11, single replicates (N=2)
  Normalized Luminescence Counts: 0.7455 and 2.064 and -1.232 and 20.5413 and -12.381 and -10.4444
hTA1 C96S; C96S, M = -11.522, single replicates (N=2)
  Normalized Luminescence Counts: 0.7455 and 3.382 and 1.4045 and 16.6681
hTA1 C96S; M = -11.522, single replicates, mutant block above C178S
  Normalized Luminescence Counts: -0.2239 and -0.1784 and -0.4742 and 3.153 and 1.07 and 2.833
hTA1 C96S; M = -12, single replicates, mutant block above C178S
  Normalized Luminescence Counts: -0.6336 and -0.2466 and -0.7474 and 2.192 and 1.657 and 3.26
hTA1 C96S; M = -12.522, single replicates, mutant block above C178S
  Normalized Luminescence Counts: -0.7701 (2×) and -0.4515 and 1.764 and 0.7492 and 1.497
hTA1 W264F; W246F mutant (so in the source) minus WT average
  ΔEmax values (each mutant value - WT average): -7.264
hTA1 W264F; W246F mutant (so in the source), β-PEA = 100, each line an independent experiment, 3 replicates
  Emax values, Mean: 47.4013
hTA1 W264F; W246F mutant (so in the source), β-PEA = 100, each line an independent experiment, 3 replicates, read-out: Emax values (Mean)
  Emax: 32.8%
hTA1 W264F; W264F, n=2, read-out: Span ± SEM (Emax normalized to β-PEA)
  Emax: 40.1 ± 7.28%
hTA1 I290Y; I290Y, read-out: Span ± SEM (Emax normalized to β-PEA)
  Emax: 17.6 ± 2.61%
hTA1 I290Y; I290Y, single experiments (3 replicates each), β-PEA = 100
  Emax values, Mean: 14.0517 and 22.6718 and 15.9842
hTA1 I290Y; M = -5
  cAMP accumulation response, normalized (concentration-response source data, single replicate values): 15.3564 and 19.3577 and 13.5096 and 22.3431 and 15.3808 and 18.6787 and 17.3474 and 21.8593 and 16.2195
hTA1 I290Y; M = -5.522
  cAMP accumulation response, normalized (concentration-response source data, single replicate values): 12.5863 and 17.5109 and 9.201 and 20.8774 and 14.2815 and 17.213 and 8.324 and 11.7076 and 15.0915
hTA1 I290Y; M = -6
  cAMP accumulation response, normalized (concentration-response source data, single replicate values): 6.738 and 15.972 and 11.3551 and 15.0144 and 31.5041 and 26.3739 and 8.324 and 3.812 and 11.7076
hTA1 I290Y; M = -6.522
  cAMP accumulation response, normalized (concentration-response source data, single replicate values): 9.508 and 11.6629 and 4.584 and 19.0452 and 19.7781 and 16.4801 and 8.324 (2×) and 15.0915
hTA1 I290Y; M = -7
  cAMP accumulation response, normalized (concentration-response source data, single replicate values): 5.199 and 18.1265 and 8.893 and 8.052 and 10.6171 and 15.0144 and 6.068 (2×) and 10.5796
hTA1 I290Y; M = -7.522
  cAMP accumulation response, normalized (concentration-response source data, single replicate values): 5.815 and 14.7408 and 3.6603 and 6.22 and 6.586 and 4.754 and 1.556 and -0.7002 and 0.4278
hTA1 I290Y; M = -8
  cAMP accumulation response, normalized (concentration-response source data, single replicate values): 4.584 and 6.738 and 6.43 and 5.853 and 4.388 and 1.823 and -2.956 and -1.828 and -0.7002
hTA1 I290Y; M = -8.522
  cAMP accumulation response, normalized (concentration-response source data, single replicate values): -1.264 and 1.506 and 0.8902 and -4.04 and -4.407 and 4.021 and -5.212 and -4.0841 and -2.956
hTA1 I290Y; M = -9
  cAMP accumulation response, normalized (concentration-response source data, single replicate values): -2.496 and -0.341 and -1.88 and -5.14 and -1.109 and 9.151 and -5.212 and -4.0841 and -2.956
hTA1 I290Y; M = -9.522
  cAMP accumulation response, normalized (concentration-response source data, single replicate values): -3.7267 and -1.264 and -2.803 and -1.475 and -4.407 and 4.388 and -4.0841 (2×) and -2.956
hTA1 I290Y; M = -10
  cAMP accumulation response, normalized (concentration-response source data, single replicate values): -2.188 (2×) and -0.6488 and -5.873 and -0.7424 and -6.239 and -2.956 (2×) and -1.828
hTA1 I290Y; M = -10.522
  cAMP accumulation response, normalized (concentration-response source data, single replicate values): -2.496
hTA1 F195T; F195T mutant minus WT average, Figure 5B
  ΔpEC50 values (each mutant value - WT average), Mean: 0.04071 and 0.07112
hTA1 F195T; F195T mutant, Figure 5B, β-PEA = 100, each row one independent experiment (3 replicates)
  Emax values, Mean: 86.6537
hTA1 F195T; F195T mutant, Figure 5B, β-PEA = 100, each row one independent experiment (3 replicates), read-out: Emax values, Mean
  Emax: 67.7%
hTA1 F195T; F195T, n=2, read-out: Span ± SEM (Emax normalized to β-PEA)
  Emax: 77.2 ± 9.48%
hTA1 T271N; T271N mutant minus WT average, Figure 5B
  ΔpEC50 values (each mutant value - WT average), Mean: 0.04727 and -0.1115
hTA1 T271N; T271N mutant, Figure 5B, β-PEA = 100, each row one independent experiment (3 replicates)
  Emax values, Mean: 121.192 and 53.6921
hTA1 T271N; n=2, read-out: Span ± SEM (Emax normalized to β-PEA)
  Emax: 87.4 ± 33.8%
hTA1 T271N; relative to β-PEA, read-out: Emax
  Emax: 87.4%
